In PMC7311426, “An amphipathic peptide with antibiotic activity against multidrug-resistant Gram-negative bacteria” (Nature Communications, 2020):
Converted amounts (≈) assume the structure as drawn.

How the values were obtained:
Experiment in all cases: microbe, parasite or virus in culture
[1] = system: K. pneumoniae (#3010 & ST258); format: cell-based, Klebsiella pneumoniae
Method: (§1) The test media was cation-adjusted MHB (CAMHB, Becton Dickinson) supplemented with 2% Noble Agar (Becton Dickinson) and additionally for AA139 with 0.1% BSA. The agar dilution MIC values were determined as recommended by Clinical and Laboratory Standards Institute (CLSI)[47]. […] The inoculum for the spontaneous mutation plates targeted 10^9 to 10^10 colony-forming units (CFU) per plate. The viable count of each suspension was determined by plating serial ten-fold dilutions onto MHB/NA in duplicate. In addition, agar plates without drug were inoculated as positive controls. Plates were inspected for growth at both 24 and 48 h. Colony counts were determined manually. Using the counts at 48 h, the spontaneous mutation frequency was calculated using the following equation: (average number of colonies from duplicate selection plates)/(total number of cells inoculated onto each plate). If there were no colonies on the antibiotic selection plates, the spontaneous mutation frequency was reported as less than the frequency observed with one colony to indicate that the spontaneous mutation frequency was less than the limit of detection (one CFU).

[2] = system: P. aeruginosa; format: cell-based, Pseudomonas aeruginosa; parameters: MIC, Survanta (5%) replicates: unit not given beside the values
[3] = system: P. aeruginosa (UNT138-1 & ATCC 27853); format: cell-based, Pseudomonas aeruginosa
Method: as §1

[4] = system: K. pneumoniae; format: cell-based, Klebsiella pneumoniae
[5] = system: E. coli clinical isolates
In short: (§2)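 MIC90 from CLSI broth microdilution (M07-A9) in two clinical-isolate panels. US panel (331 isolates, 2010-2012): AA139 diluted in 0.01% acetic acid/0.1% BSA. Worldwide panel (445 isolates, 2011-2013, four regions): CAMHB, with 0.002% Tween 80 added for AA139 and polymyxin B.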

[6] = system: P. aeruginosa clinical isolates
In short: as §2

[7] = system: K. pneumoniae clinical isolates
In short: as §2

[8] = P. aeruginosa ATCC 27853 control strain, n=2 to 6, mode or median
[9] = P. aeruginosa FADDI-070 MDR, PmxR, n=2 to 6, mode or median
[10] = K. pneumoniae ATCC 700603 ESBL, OXA-2/SHV-18, n=2 to 6, mode or median
[11] = Worldwide isolates 2011-2013, E. coli n = 112
[12] = Worldwide isolates 2011-2013, K. pneumoniae n = 114

Compound: colistin
- Noble agar dilution MIC ([1]; K. pneumoniae SSI#3010): 1 µg/mL
- Agar (Noble) Dilution MIC ([1]; K. pneumoniae ST258): 1 µg/mL
- Noble agar dilution MIC ([1]; K. pneumoniae ST258): 1 µg/mL
- MIC, Survanta (5%) ([2]; P. aeruginosa ATCC 27853, control strain, BMD with 5% Survanta lung surfactant, mode, or median where no mode, n=4 to 6, where n=2 differs the higher value): 0.25
- MIC, Survanta (5%) replicates ([2]; P. aeruginosa ATCC 27853, control strain, BMD with 5% Survanta lung surfactant, replicate 1): 0.5
- MIC, Survanta (5%) replicates ([2]; P. aeruginosa ATCC 27853, control strain, BMD with 5% Survanta lung surfactant, replicate 2): 0.5
- MIC, Survanta (5%) replicates ([2]; P. aeruginosa ATCC 27853, control strain, BMD with 5% Survanta lung surfactant, replicate 3): 0.125
- MIC, Survanta (5%) replicates ([2]; P. aeruginosa ATCC 27853, control strain, BMD with 5% Survanta lung surfactant, replicate 4): 0.125
- MIC, Serum (50%) ([2]; P. aeruginosa ATCC 27853, control strain, BMD with 50% human serum, mode, or median where no mode, n=4 to 6, where n=2 differs the higher value): 0.25
- MIC, Serum (50%) replicates ([2]; P. aeruginosa ATCC 27853, control strain, BMD with 50% human serum, replicate 1): 0.5
- MIC, Serum (50%) replicates ([2]; P. aeruginosa ATCC 27853, control strain, BMD with 50% human serum, replicate 2): 0.5
- MIC, Serum (50%) replicates ([2]; P. aeruginosa ATCC 27853, control strain, BMD with 50% human serum, replicate 3): 0.25
- MIC, Serum (50%) replicates ([2]; P. aeruginosa ATCC 27853, control strain, BMD with 50% human serum, replicate 4): 0.25
- MIC, Serum (50%) replicates ([2]; P. aeruginosa ATCC 27853, control strain, BMD with 50% human serum, replicate 5): 0.125
- MIC, Serum (50%) replicates ([2]; P. aeruginosa ATCC 27853, control strain, BMD with 50% human serum, replicate 6): 0.125
- MIC, Serum (50%) [2, 8]: 0.25 µg/mL
- MIC, Survanta (5%) [2, 8]: 0.25 µg/mL
- MIC, Survanta (5%) ([2]; P. aeruginosa FADDI-070, MDR, PmxR, BMD with 5% Survanta lung surfactant, mode, or median where no mode, n=4 to 6, where n=2 differs the higher value): ≥64
- MIC, Survanta (5%) replicates ([2]; P. aeruginosa FADDI-070, MDR, PmxR, BMD with 5% Survanta lung surfactant, replicate 1): 64
- MIC, Survanta (5%) replicates ([2]; P. aeruginosa FADDI-070, MDR, PmxR, BMD with 5% Survanta lung surfactant, replicate 2): 64
- MIC, Survanta (5%) replicates ([2]; P. aeruginosa FADDI-070, MDR, PmxR, BMD with 5% Survanta lung surfactant, replicate 3): >64
- MIC, Survanta (5%) replicates ([2]; P. aeruginosa FADDI-070, MDR, PmxR, BMD with 5% Survanta lung surfactant, replicate 4): >64
- MIC, Serum (50%) replicates ([2]; P. aeruginosa FADDI-070, MDR, PmxR, BMD with 50% human serum, replicate 1): 0.25
- MIC, Serum (50%) replicates ([2]; P. aeruginosa FADDI-070, MDR, PmxR, BMD with 50% human serum, replicate 2): 0.125
- MIC, Serum (50%) ([2]; P. aeruginosa FADDI-070, MDR, PmxR, BMD with 50% human serum, where n=2 differs the higher value is recorded): 0.25
- MIC, Serum (50%) [2, 9]: 0.25 µg/mL
- MIC, Survanta (5%) [2, 9]: ≥ 64 µg/mL
- Agar (Noble) Dilution MIC ([3]; P. aeruginosa ATCC 27853): 2 µg/mL
- Noble agar dilution MIC ([3]; P. aeruginosa ATCC 27853): 2 µg/mL
- Noble agar dilution MIC ([3]; P. aeruginosa UNT138-1): 2 µg/mL
- MIC, Serum (50%) replicates ([4]; K. pneumoniae ATCC 13883, type strain, BMD with 50% human serum, replicate 1): ≤0.03
- MIC, Serum (50%) replicates ([4]; K. pneumoniae ATCC 13883, type strain, BMD with 50% human serum, replicate 2): ≤0.03
- MIC, Serum (50%) ([4]; K. pneumoniae ATCC 13883, type strain, BMD with 50% human serum, where n=2 differs the higher value is recorded): ≤0.03
- MIC, Serum (50%) ([4]; K. pneumoniae ATCC 13883 type strain, n=2 to 6, mode or median): ≤ 0.03 µg/mL
- MIC, Survanta (5%) ([4]; K. pneumoniae ATCC 700603, ESBL, OXA-2/SHV-18, BMD with 5% Survanta lung surfactant, mode, or median where no mode, n=4 to 6, where n=2 differs the higher value): 0.125
- MIC, Survanta (5%) replicates ([4]; K. pneumoniae ATCC 700603, ESBL, OXA-2/SHV-18, BMD with 5% Survanta lung surfactant, replicate 1): 1
- MIC, Survanta (5%) replicates ([4]; K. pneumoniae ATCC 700603, ESBL, OXA-2/SHV-18, BMD with 5% Survanta lung surfactant, replicate 2): 0.5
- MIC, Survanta (5%) replicates ([4]; K. pneumoniae ATCC 700603, ESBL, OXA-2/SHV-18, BMD with 5% Survanta lung surfactant, replicate 3): 0.03
- MIC, Survanta (5%) replicates ([4]; K. pneumoniae ATCC 700603, ESBL, OXA-2/SHV-18, BMD with 5% Survanta lung surfactant, replicate 4): 0.06
- MIC, Serum (50%) ([4]; K. pneumoniae ATCC 700603, ESBL, OXA-2/SHV-18, BMD with 50% human serum, mode, or median where no mode, n=4 to 6, where n=2 differs the higher value): 0.125
- MIC, Serum (50%) replicates ([4]; K. pneumoniae ATCC 700603, ESBL, OXA-2/SHV-18, BMD with 50% human serum, replicate 1): 0.25
- MIC, Serum (50%) replicates ([4]; K. pneumoniae ATCC 700603, ESBL, OXA-2/SHV-18, BMD with 50% human serum, replicate 2): 0.25
- MIC, Serum (50%) replicates ([4]; K. pneumoniae ATCC 700603, ESBL, OXA-2/SHV-18, BMD with 50% human serum, replicate 3): 0.031
- MIC, Serum (50%) replicates ([4]; K. pneumoniae ATCC 700603, ESBL, OXA-2/SHV-18, BMD with 50% human serum, replicate 4): 0.063
- MIC, Serum (50%) replicates ([4]; K. pneumoniae ATCC 700603, ESBL, OXA-2/SHV-18, BMD with 50% human serum, replicate 5): 0.031
- MIC, Serum (50%) replicates ([4]; K. pneumoniae ATCC 700603, ESBL, OXA-2/SHV-18, BMD with 50% human serum, replicate 6): ≤0.031
- MIC, Serum (50%) [4, 10]: 0.125 µg/mL
- MIC, Survanta (5%) [4, 10]: 0.125 µg/mL
- MIC, Survanta (5%) ([4]; K. pneumoniae BAA-2146, NDM-1, BMD with 5% Survanta lung surfactant, mode, or median where no mode, n=4 to 6, where n=2 differs the higher value): 0.06
- MIC, Survanta (5%) replicates ([4]; K. pneumoniae BAA-2146, NDM-1, BMD with 5% Survanta lung surfactant, replicate 1): 0.125
- MIC, Survanta (5%) replicates ([4]; K. pneumoniae BAA-2146, NDM-1, BMD with 5% Survanta lung surfactant, replicate 2): 0.125
- MIC, Survanta (5%) replicates ([4]; K. pneumoniae BAA-2146, NDM-1, BMD with 5% Survanta lung surfactant, replicate 3): ≤0.03
- MIC, Survanta (5%) replicates ([4]; K. pneumoniae BAA-2146, NDM-1, BMD with 5% Survanta lung surfactant, replicate 4): ≤0.03
- MIC, Survanta (5%) ([4]; K. pneumoniae BAA-2146 NDM-1, n=2 to 6, mode or median): 0.06 µg/mL

Compound: C[C@H]1COc2c(N3CCN(C)CC3)c(F)cc3c(=O)c(C(=O)O)cn1c23 [LEV, levofloxacin, reference compound]
- MIC90 ([5]; Escherichia coli): 16 µg/mL (≈ 44.3 µM)
- MIC50 [5, 11]: 0.06 µg/mL (≈ 0.166 µM)
- MIC90 [5, 11]: 16 µg/mL (≈ 44.3 µM)
- MIC90 ([6]; Pseudomonas aeruginosa): > 32 µg/mL
- MIC90 ([6]; Worldwide isolates 2011-2013, P. aeruginosa n = 111): > 32 µg/mL
- MIC90 ([7]; Klebsiella pneumoniae): > 32 µg/mL
- MIC50 [7, 12]: 0.25 µg/mL (≈ 0.692 µM)
- MIC90 [7, 12]: > 32 µg/mL
- MIC ([1]; Klebsiella pneumoniae, read-out: Agar (Noble) Dilution MIC, K. pneumoniae ST258): > 8 µg/mL
- MIC ([3]; Pseudomonas aeruginosa, ATCC27853, read-out: Agar (Noble) Dilution MIC, P. aeruginosa ATCC 27853): 2 µg/mL (≈ 5.53 µM)
